Results on six molecules are retold here after patent US10377741B2, “Substituted heteroaryl aldehyde compounds and methods for their use in increasing tissue oxygenation” (Global Blood Therapeutics, Inc., priority 2011, dated 2019).

A word on the melting point: it is the temperature of the solid-liquid transition.

The target in series [1] is hemoglobin (Homo sapiens, UniProt P68871+P69905). The following applies: in vitro and in vivo; cited from earlier work.
Series [2] deals with human HbS. The following applies: transgenic mice producing human HbS, cited from earlier work.
The target in series [3] is T1, purified Hemoglobin S (HbS) (Homo sapiens, UniProt P68871+P69905, E7V).
T1 construct: HbS was purified by a modified procedure; from tissue; host or cells: blood of homozygous sickle cell patients (CHORI); for the polymerization assay purified by the CRO VIRUSYS
Kind of series: Modulation of hemoglobin oxygen affinity: oxygen equilibrium curves (HEMOX) in purified HbS. The class given is biochemical, human (homozygous sickle cell patients). The following applies: compound at 30 μM; 25 μM purified HbS, 45 min at 37° C. The gist of the method: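 HbS from homozygous sickle cell patient blood, 25 μM in HEMOX buffer pH 7.4, incubated 45 min at 37° C with compound (30 μM unless noted). Air-saturated then deoxygenated with N2; p50 from Hill fit; delta p50% = (control p50 − treated p50)/control p50 × 100.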

Series [4] addresses T2, purified HBS (Homo sapiens, UniProt P68871+P69905, E7V).
T2 construct: HbS was purified by a modified procedure; from tissue; host or cells: blood of homozygous sickle cell patients (CHORI); for the polymerization assay purified by the CRO VIRUSYS
Kind of series: Polymerization assay (delay time of HbS polymerization). The class given is biochemical, human (homozygous sickle cell patients). Conditions: percent delay (% DT) vs HBS alone; 50 μM purified HBS, 1.8 M potassium phosphate pH 7.4.

Series [5] deals with T3, HbS/A (Homo sapiens, UniProt P68871+P69905, E7V).
T3 construct: A mixture of HbS/A was purified from blood; from tissue; host or cells: blood of homozygous sickle cell patients (CHORI)
Kind of series: R/T assay (relaxed-to-tense transition under deoxygenated conditions). Format: biochemical, human (homozygous sickle cell patients). The following applies: 3 μM HbS/A, % R remaining vs no treatment. The method, boiled down:
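Purified HbS/A (3 μM final) incubated 1 hr at 37° C with compounds (3 μM to 100 μM) in potassium phosphate buffer pH 7.4 with 30 μM DPG, then deoxygenated under N2 with 300–700 nm spectra every 5 min for 2 hours. Delta R is % R state retained versus untreated, by linear regression over all wavelengths.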

Series [6] relates to whole blood. Kind of series: Whole blood assay: oxygen equilibrium curves of whole blood. The class given is cell-based, human (homozygous sickle cell patients). The following applies: compound at 1000 μM; hematocrit 20%, 1 hour at 37° C. The gist of the method: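 Homozygous sickle cell patient blood, hematocrit 20% in autologous plasma, incubated 1 h at 37° C with or without compound (1000 μM unless noted). Diluted into Hemox buffer pH 7.4, oxygenated then deoxygenated with nitrogen; OEC fitted to Hill model for p50, reported as delta p50%.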

As for `Cl.O=Cc1ccncc1OCc1ccc(C(=O)O)cn1`, the melting point lay within 192 to 194 °C.

In the case of `O=Cc1ccc(CO)o1` [Compound 5HMF, 5-hydroxymethyl-2-furfuraldehyde], the hemoglobin modulator activity entry in series [1] is “potent hemoglobin modulator both in vitro and in vivo”. In series [2] (extreme hypoxia (5% oxygen)), the survival times entry was “significantly improved survival times”. Moreover, the “hypoxia-induced sickled red blood cells” value in series [2] (hypoxic conditions, compared to the non-treated mice) was “reduced amounts of hypoxia-induced sickled red blood cells”.

Turning to `COc1cc(C=O)c(OCc2cccnc2-c2ccnn2C2CCCC2)cn1` [Compound 198, 5-((2-(1-cyclopentyl-1H-pyrazol-5-yl)pyridin-3-yl)methoxy)-2-methoxyisonicotinaldehyde], the “delta p50%” value in series [3] is on record as “+++ (a delta p50% of 50 or greater)”. In addition, the “% delta Delay” value in series [4] is listed as “† (activity ≥40% but ≤80%)”. Further, the “delta R” value in series [5] (compound at 30 μM) is “++ (a delta R of between 30 and 50)”. For the same molecule, the “delta p50% Values for Whole Blood Assay” value in series [6] is reported as “+++ (a delta p50% of 50 or greater)”.

For `COc1cc(C=O)c(OCc2cccnc2-c2ccnn2CC(=O)O)cn1` [Compound 199, 2-(5-(3-((4-formyl-6-methoxypyridin-3-yloxy)methyl)pyridin-2-yl)-1H-pyrazol-1-yl)acetic acid], the “delta p50%” value in series [3] is on record as “+++ (a delta p50% of 50 or greater)”. For the same molecule, the “% delta Delay” value in series [4] is “††† (activity >120% but ≤140%)”. Further, in series [5] (compound at 9 μM), the “delta R” value is “+ (a delta R of between 0 and 30)”. The “delta p50% Values for Whole Blood Assay” value in series [6] was “+ (a delta p50% of between 0 and 29)”.

For `COc1cc(C=O)c(OCc2cccnc2-c2ccnn2CCC(=O)O)cn1` [Compound 202, 3-(5-(3-(((4-formyl-6-methoxypyridin-3-yl)oxy)methyl)pyridin-2-yl)-1H-pyrazol-1-yl)propanoic acid], the “delta p50%” value in series [3] is on record as “+++ (a delta p50% of 50 or greater)”. Besides, in series [4], the “% delta Delay” value was “††† (activity >120% but ≤140%)”. Also, in series [5] (compound at 9 μM), the “delta R” value was “+ (a delta R of between 0 and 30)”. Besides, the “delta p50% Values for Whole Blood Assay” value in series [6] was “+ (a delta p50% of between 0 and 29)”.

Molecule `CS(=O)(=O)NC(=O)c1ccc(COc2cnccc2C=O)nc1` [Compound 206, 2,2,2-trifluoroacetic acid:6-(((4-formylpyridin-3-yl)oxy)methyl)-N-(methylsulfonyl)nicotinamide (2:1)] gave a melting point of 102 to 104 °C. For the same molecule, the “% delta Delay” value in series [4] is “††† (activity >120% but ≤140%)”. Also, the “delta R” value in series [5] (compound at 9 μM) was “+ (a delta R of between 0 and 30)”. Also, the “delta p50% Values for Whole Blood Assay” value in series [6] is “+++ (a delta p50% of 50 or greater)”.
